Laboratory results reported in patent US8404286B2, “Use of extracts or of extract compounds from Piper cubeba L. as active components in a medicament for the treatment of cancer” (Viridis Pharmaceutical Limited, priority 2007, dated 2013).

What was measured:
[1] = system: LNCap cells; assay: Inhibition of the cell proliferation, LNCap cells; type: cell-based; details: 4 days, 10% FBS culture medium, versus solvent control
Protocol: (§1) With the liquid extract P9605 prepared according to example 1 were carried out cell proliferation tests. As control was carried along a typical substance of content of the cubeben fruits, the lignan Cubebin.
(§2) For the measurement of the inhibition of the cell proliferation this extract was added to LNCap and to PC-3 cells. The so treated cells were cultivated during 4 days in 10% FES culture medium.
(§3) For comparison the pure lignan Cubebin, that is contained in the extract prepared according to the invention and according to example 1 in an amount up to 20 m/m of the dry substance, was added also to LNCap and to PC-3 cells. The so treated cells were cultivated during 4 days in 10 FBS culture medium.
(§4) Thereby it was proceeded according to T. Lindl, Zell- und Gewebekultur, 4th revised edition, 2000, Spektrum Akademischer Verlag, Heidelberg.
(§5) All obtained datas are given in percents with regard to the solvent control (test without extract and without Cubebin); there are given the average values with Standard deviation from 4 experiments with 3-fold repetition.

[2] = target: T1, 5α-reductase type II (Homo sapiens, UniProt P31213); assay: Inhibition of the 5α-reductase type II activity (HEK293 homogenate, 3H-testosterone to 3H-DHT); type: biochemical; details: homogenate of HEK293 cells over expressing the enzyme
T1 construct: expressed in transfected cells; host or cells: HEK293 (homogenate)
T1 sequence (P31213 1-254): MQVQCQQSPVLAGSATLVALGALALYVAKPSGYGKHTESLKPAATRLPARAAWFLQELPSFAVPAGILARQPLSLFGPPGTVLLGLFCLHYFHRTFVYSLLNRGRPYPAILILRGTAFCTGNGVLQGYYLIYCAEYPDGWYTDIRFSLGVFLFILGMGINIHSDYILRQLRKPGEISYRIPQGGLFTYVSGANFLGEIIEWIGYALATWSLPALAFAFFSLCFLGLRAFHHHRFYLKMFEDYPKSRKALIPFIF
Protocol: The inhibition of the 5α-reductase type II activity by means of the liquid extract P9605 prepared according to example 1 was determined.
The assay was realized with a homogenate of HEK293 cells that over express the 5α-reductase type II (Reichert W., Hartmann R. W. and Jose J.; 2001, Journal Enzyme Inhibition, Vol. 16, 47-53).
The influence of the extract prepared according to the present invention and of the pure substance Cubebin on the activity of the 5α-reductase type II was determined by means of the measurement of the conversion of ^3H-testosterone in ^3H-DHT.
As control substance was used the known 5α-reductase inhibitor “Finasterid”.
All obtained datas are given in percents with regard to the solvent control (test without extract); there are given the average values with Standard deviation from 4 experiments with 3-fold repetition.

[3] = system: androgen receptor; assay: Amount of androgen receptor by Western-blot analysis; type: cell-based; details: 2 days, 10% FBS
Protocol: The influence of the generation of androgen receptors by means of the liquid extract P9605 prepared according to example 1 was determined.
Thereby in one experiment LNCap cells were cultivated during 2 days in 10% FBS culture medium to which were added different concentrations either of the extract prepared according to the present invention or of the pure substance Cubebin.
Then was determined the change of the amount of the androgen receptor by means of the Western-blot analysis.
In FIG. 10 are shown the bands of the androgen receptor.

[4] = system: PC-3 cells; assay: Inhibition of the cell proliferation, PC-3 cells; type: cell-based; details: PC-3, 4 days, 10% FBS culture medium, versus solvent control
Protocol: as §1, §2, §3, §4, §5

[5] = system: prostate specific antigen (PSA); assay: Secretion of the prostate specific antigen (immuno-assay, PSA/DNA); type: cell-based; details: LNCap, 2 days, 10% CSS, different concentrations
[6] = system: LNCap cells; details: control value at zero extract; cited from earlier work
[7] = system: LNCap cells; details: control value at zero extract; cited from earlier work; remark: listed apart in the source
[8] = system: LNCap cells; assay: Apoptosis immuno-assay (mono and oligonucleosomes); type: cell-based; details: 2 days, 10% FBS
Protocol: The induction of apoptosis by means of the liquid extract P9605 prepared according to example 1 was determined.
As preliminary test was added for the measurement of the induction of apoptosis the tumor necrosis factor TNF-α alone as well as in combination with 100 nM dihydrotestosterone, abbreviated with DHT, to LNCap cells. The so treated cells were cultivated during 2 days in 10% FBS culture medium.
The apoptosis of the cells was measured by applying a commercial apoptosis-immuno-assay-kit in which are detected specifically the DNA and histon fragments that are present as mono and oligonucleosomes.
Analogous experiments were carried out with DHT alone as well as in combination with 10 μg/ml of the extract prepared according to the present invention.

## OC1OC[C@H](Cc2ccc3c(c2)OCO3)[C@H]1Cc1ccc2c(c1)OCO2 (mixture of isomers) [Cubebin]
[1]
  anti-proliferate effect on LNCap cells: anti-proliferate effect on LNCap and PC-3 cells in dependency of the respective dose
[2]
  IC50-value, 5α-reductase type II: 9.9 µg/mL
  inhibitive effect on the activity of the 5α-reductase type II: inhibitive effect
[3]
  androgen receptor denseness in LNCap cells: reduced increasingly in dependency of the dose
[4]
  anti-proliferate effect on PC-3 cells: anti-proliferate effect on LNCap and PC-3 cells in dependency of the respective dose
[5]
  inhibition of the secretion of PSA (PSA/DNA): inhibit the secretion of the prostate specific antigen (PSA) in dependency of the respective dose

## C[C@]12CCC(=O)C[C@@H]1CC[C@@H]1[C@@H]2CC[C@]2(C)[C@@H](O)CC[C@@H]12 [DHT, dihydrotestosterone]
[6]
  effect of DHT on the DNA synthesis: enhances the DNA synthesis
[7]
  effect of DHT on the cell proliferation: enhances the cell proliferation
[8]; TNF-α in combination with 100 nM DHT
  effect on the TNF-α induced apoptosis: revoked completely or nearly completely

## CC(C)(C)NC(=O)[C@H]1CC[C@H]2[C@@H]3CC[C@H]4NC(=O)C=C[C@]4(C)[C@H]3CC[C@]12C [Finasterid]
[2]
  inhibitive effect on the activity of the 5α-reductase type II: inhibiting effect

## TNF-α
[8]; TNF-α alone
  induction of apoptosis: induces the apoptosis of the tumor cells in dependency of the dose
